Test results from the supplement of paper PMC11208160.

Experiment: recombinant UMI read abundance after kanamycin selection (control-corrected) (log10(CPM+1)); higher = more efficient recombination; extreme values may be limits of the assay; sequences stand for … in AGTGCAGAGAAAATCGGCCAGTTTTCTCTGCCTGCAGTCCGCATGCCGTGGGACCCCTTGGGTTCTAACCTGTTGCCTAGATTTATGCAGCGGACTGCCTTTCTCCCAAAGTGATAAACCGG…AGGTTGGTTTCACT; site = the 11-nt donor
In short: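 Counts of recombinant UMIs were reported as log10(CPM+1). Before that, they were converted to CPM, averaged over replicates and scaled using control-derived factors. They came from PCR across the donor–target junction after Escherichia coli carrying the pair library and target plasmid was plated on IPTG (0.07 mM) plus kanamycin, or unselected, in two replicates each.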
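Note: IS621 bridge recombinase in Escherichia coli cells against a fixed T5 target plasmid.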

| Sequence | recombinant UMI read abundance (log10) |
| --- | --- |
| AGTACTACATGGACCGGTTTTCCCGGTAATCCGTATTTGAC (site AGGACTACTGT) | 1.71 |
| AGTACTACATGGACCGGTTTTCCCGGTAATCCGTATTTGAC (site AGTACTACTGT) | 1.28 |
| AGTACTGCATGGACCGGTTTTCCCGGTAATCCGTATTTGGT (site AGTACTGCTAC) | 0.745 |
| AGTAGAACATGGACCGGTTTTCCCGGTAATCCGTATTTGAG (site AATAGAACTCT) | 0.806 |
| AGTAGAACATGGACCGGTTTTCCCGGTAATCCGTATTTGAG (site ACTAGAACTCT) | 0.901 |
| AGTAGAACATGGACCGGTTTTCCCGGTAATCCGTATTTGAG (site AGTAGAACTCT) | 1.24 |
| AGTAGAACATGGACCGGTTTTCCCGGTAATCCGTATTTGAG (site ATTAGAACTCT) | 0.418 |
| AGTAGCTCATGGACCGGTTTTCCCGGTAATCCGTATTTGGC (site AGTAGCTCTGC) | 2.79 |
| AGTAGTACATGGACCGGTTTTCCCGGTAATCCGTATTTGGT (site AGTAGTACTAC) | 0.706 |
| AGTAGTGCATGGACCGGTTTTCCCGGTAATCCGTATTTGGT (site AATAGTGCTAC) | 0.246 |
| AGTAGTGCATGGACCGGTTTTCCCGGTAATCCGTATTTGGT (site ACTAGTGCTAC) | 0.699 |
| AGTAGTGCATGGACCGGTTTTCCCGGTAATCCGTATTTGGT (site AGTAGTGCTAC) | 1.3 |
| AGTAGTGCATGGACCGGTTTTCCCGGTAATCCGTATTTGGT (site ATTAGTGCTAC) | 0.00696 |
| AGTATTTCATGGACCGGTTTTCCCGGTAATCCGTATTTGAG (site AGTATTTCTCT) | 1.39 |
| AGTCAGACATGGACCGGTTTTCCCGGTAATCCGTATTTGGC (site AGTCAGACTGC) | 2.34 |
| AGTCCGACATGGACCGGTTTTCCCGGTAATCCGTATTTGTC (site AGTCCGACTGA) | 0.624 |
| AGTCGTACATGGACCGGTTTTCCCGGTAATCCGTATTTGGA (site AGTCGTACTTC) | 0.529 |
| AGTCTGGCATGGACCGGTTTTCCCGGTAATCCGTATTTGAA (site AGTCTGGCTTT) | 1.19 |
| AGTCTTACATGGACCGGTTTTCCCGGTAATCCGTATTTGGT (site AGTCTTACTAC) | 1.14 |
| AGTGCCGCATGGACCGGTTTTCCCGGTAATCCGTATTTGGG (site AGTGCCGCTCC) | 0.025 |
| AGTGTAACATGGACCGGTTTTCCCGGTAATCCGTATTTGCT (site AATGTAACTAG) | 1.36 |
| AGTGTAACATGGACCGGTTTTCCCGGTAATCCGTATTTGCT (site ACTGTAACTAG) | 1.47 |
| AGTGTAACATGGACCGGTTTTCCCGGTAATCCGTATTTGCT (site AGTGTAACTAG) | 1.94 |
| AGTGTAACATGGACCGGTTTTCCCGGTAATCCGTATTTGCT (site ATTGTAACTAG) | 1.12 |
| AGTGTCTCATGGACCGGTTTTCCCGGTAATCCGTATTTGAG (site AGTGTCTCTCT) | 1.2 |

| Sequence | recombinant UMI read abundance (log10) |
| --- | --- |
| AGTTAGGCATGGACCGGTTTTCCCGGTAATCCGTATTTGGA (site AGTTAGGCTTC) | 0.957 |
| AGTTCAGCATGGACCGGTTTTCCCGGTAATCCGTATTTGAT (site AGTTCAGCTAT) | 1.05 |
| AGTTCCTCATGGACCGGTTTTCCCGGTAATCCGTATTTGCA (site AGTTCCTCTTG) | 2.47 |
| AGTTCGACATGGACCGGTTTTCCCGGTAATCCGTATTTGAC (site AGTTCGACTGT) | 0.845 |
| AGTTGATCATGGACCGGTTTTCCCGGTAATCCGTATTTGAC (site AGTTGATCTGT) | 1.28 |
| AGTTGCTCATGGACCGGTTTTCCCGGTAATCCGTATTTGAA (site AGTTGCTCTTT) | 0.47 |
| AGTTGGCCATGGACCGGTTTTCCCGGTAATCCGTATTTGGG (site AGTTGGCCTCC) | 0.0248 |
| AGTTGTTCATGGACCGGTTTTCCCGGTAATCCGTATTTGTT (site AGTTGTTCTAA) | 0.233 |
| AGTTTCCCATGGACCGGTTTTCCCGGTAATCCGTATTTGTG (site AGATTCCCTCA) | 0.0216 |
| AGTTTCCCATGGACCGGTTTTCCCGGTAATCCGTATTTGTG (site AGCTTCCCTCA) | 0.0227 |
| AGTTTCCCATGGACCGGTTTTCCCGGTAATCCGTATTTGTG (site AGGTTCCCTCA) | 0.0056 |
| AGTTTCCCATGGACCGGTTTTCCCGGTAATCCGTATTTGTG (site AGTTTCCCTCA) | 0.0252 |
| AGTTTGCCATGGACCGGTTTTCCCGGTAATCCGTATTTGAA (site AGTTTGCCTTT) | 0.00758 |
| ATAAACCCATGGACCGGTTTTCCCGGTAATCCGTATTTGAT (site ATAAACCCTAT) | 1.19 |
| ATAAACTCATGGACCGGTTTTCCCGGTAATCCGTATTTGCG (site ATAAACTCTCG) | 3.23 |
| ATAAAGGCATGGACCGGTTTTCCCGGTAATCCGTATTTGCT (site AAAAAGGCTAG) | 0.238 |
| ATAAAGGCATGGACCGGTTTTCCCGGTAATCCGTATTTGCT (site ACAAAGGCTAG) | 1.63 |
| ATAAAGGCATGGACCGGTTTTCCCGGTAATCCGTATTTGCT (site AGAAAGGCTAG) | 0.349 |
| ATAAAGGCATGGACCGGTTTTCCCGGTAATCCGTATTTGCT (site ATAAAGGCTAG) | 2.75 |
| ATAACGCCATGGACCGGTTTTCCCGGTAATCCGTATTTGAG (site ATAACGCCTCT) | 0.00694 |
| ATAACGCCATGGACCGGTTTTCCCGGTAATCCGTATTTGTC (site ATAACGCCTGA) | 1.58 |
| ATAAGGCCATGGACCGGTTTTCCCGGTAATCCGTATTTGAA (site ATAAGGCCTAT) | 0.00331 |
| ATAAGGCCATGGACCGGTTTTCCCGGTAATCCGTATTTGAA (site ATAAGGCCTCT) | 0.0201 |
| ATAAGGCCATGGACCGGTTTTCCCGGTAATCCGTATTTGAA (site ATAAGGCCTGT) | 0 |
| ATAAGGCCATGGACCGGTTTTCCCGGTAATCCGTATTTGAA (site ATAAGGCCTTT) | 0.404 |

| Sequence | recombinant UMI read abundance (log10) |
| --- | --- |
| ATAAGGCCATGGACCGGTTTTCCCGGTAATCCGTATTTGAG (site ATAAGGCCTAT) | 0.00358 |
| ATAAGGCCATGGACCGGTTTTCCCGGTAATCCGTATTTGAG (site ATAAGGCCTCT) | 0.325 |
| ATAAGGCCATGGACCGGTTTTCCCGGTAATCCGTATTTGAG (site ATAAGGCCTGT) | 0 |
| ATAAGGCCATGGACCGGTTTTCCCGGTAATCCGTATTTGAG (site ATAAGGCCTTT) | 0.025 |
| ATAAGGGCATGGACCGGTTTTCCCGGTAATCCGTATTTGAC (site ATAAGGACTGT) | 2.61 |
| ATAAGGGCATGGACCGGTTTTCCCGGTAATCCGTATTTGAC (site ATAAGGCCTGT) | 0.00415 |
| ATAAGGGCATGGACCGGTTTTCCCGGTAATCCGTATTTGAC (site ATAAGGGCTGT) | 2.79 |
| ATAAGGGCATGGACCGGTTTTCCCGGTAATCCGTATTTGAC (site ATAAGGTCTGT) | 2.53 |
| ATAAGGTCATGGACCGGTTTTCCCGGTAATCCGTATTTGAC (site ATAAGGACTGT) | 1.91 |
| ATAAGGTCATGGACCGGTTTTCCCGGTAATCCGTATTTGAC (site ATAAGGCCTGT) | 1.04 |
| ATAAGGTCATGGACCGGTTTTCCCGGTAATCCGTATTTGAC (site ATAAGGGCTGT) | 0.526 |
| ATAAGGTCATGGACCGGTTTTCCCGGTAATCCGTATTTGAC (site ATAAGGTCTGT) | 3.4 |
| ATACACACATGGACCGGTTTTCCCGGTAATCCGTATTTGGG (site ATACACACTCC) | 0.537 |
| ATACAGCCATGGACCGGTTTTCCCGGTAATCCGTATTTGGT (site ATACAGCCTAC) | 0.00946 |
| ATACATCCATGGACCGGTTTTCCCGGTAATCCGTATTTGAC (site AAACATCCTGT) | 0 |
| ATACATCCATGGACCGGTTTTCCCGGTAATCCGTATTTGAC (site ACACATCCTGT) | 0 |
| ATACATCCATGGACCGGTTTTCCCGGTAATCCGTATTTGAC (site AGACATCCTGT) | 0 |
| ATACATCCATGGACCGGTTTTCCCGGTAATCCGTATTTGAC (site ATACATCCTGT) | 1.12 |
| ATACGAACATGGACCGGTTTTCCCGGTAATCCGTATTTGTC (site AAACGAACTGA) | 0 |
| ATACGAACATGGACCGGTTTTCCCGGTAATCCGTATTTGTC (site ACACGAACTGA) | 0 |
| ATACGAACATGGACCGGTTTTCCCGGTAATCCGTATTTGTC (site AGACGAACTGA) | 0 |
| ATACGAACATGGACCGGTTTTCCCGGTAATCCGTATTTGTC (site ATACGAACTGA) | 2.83 |
| ATACGGACATGGACCGGTTTTCCCGGTAATCCGTATTTGAA (site ATACGGACTTT) | 1.39 |
| ATACTATCATGGACCGGTTTTCCCGGTAATCCGTATTTGCA (site ACAGTATCTTG) | 1.72 |
| ATACTATCATGGACCGGTTTTCCCGGTAATCCGTATTTGCA (site ATACTATCTTG) | 2.84 |
